Data as given in publication PMC5218480 (PLoS ONE, 2017).

System: MV-4-11 cells
Assay: Gene expression microarray analysis (Affymetrix PrimeView) and GSEA
Format: cell-based, human
Parameters: RFU PODN (11730768_x_at) / Fold change /veh PODN (11730768_x_at) / RFU LINC00158 (11744669_a_at) / Fold change /veh LINC00158 (11744669_a_at) / RFU DUSP10 (11751237_a_at) / Fold change /veh DUSP10 (11751237_a_at) / RFU ID3 (11757404_x_at) / Fold change /veh ID3 (11757404_x_at) / RFU PLEKHG5 (11737974_s_at) / Fold change /veh PLEKHG5 (11737974_s_at) / RFU LRRC4B (11730491_at) / Fold change /veh LRRC4B (11730491_at) / RFU GIMAP4 (11747438_a_at) / Fold change /veh GIMAP4 (11747438_a_at) / RFU KRT8 (11758183_x_at) / Fold change /veh KRT8 (11758183_x_at) / RFU CNN1 (11734310_a_at) / Fold change /veh CNN1 (11734310_a_at) / RFU VPS37D (11726825_at) / Fold change /veh VPS37D (11726825_at) / RFU C10orf10 (11716522_x_at) / Fold change /veh C10orf10 (11716522_x_at) / RFU KIR2DL2 /// KIR2DL4 /// KIR2DL5A /// KIR2DL5B /// KIR2DS1 /// KIR2DS2 /// KIR2DS3 /// KIR2DS4 /// KIR3DL3 /// KIR3DL3 /// KIR3DS1 (11738374_at) / Fold change /veh KIR2DL2 /// KIR2DL4 /// KIR2DL5A /// KIR2DL5B /// KIR2DS1 /// KIR2DS2 /// KIR2DS3 /// KIR2DS4 /// KIR3DL3 /// KIR3DL3 /// KIR3DS1 (11738374_at) / RFU C1QL1 (11718748_at) / Fold change /veh C1QL1 (11718748_at) / RFU TMPRSS4 (11747572_a_at) / Fold change /veh TMPRSS4 (11747572_a_at) / RFU HAMP (11756126_x_at) / Fold change /veh HAMP (11756126_x_at) / RFU RNFT2 (11725882_a_at) / Fold change /veh RNFT2 (11725882_a_at) / RFU NR4A2 (11747474_a_at) / Fold change /veh NR4A2 (11747474_a_at) / RFU ABCC12 (11746883_a_at) / Fold change /veh ABCC12 (11746883_a_at) / RFU TMEM136 (11760407_x_at) / Fold change /veh TMEM136 (11760407_x_at) / RFU CLDN22 /// WWC2 (11732394_at) / Fold change /veh CLDN22 /// WWC2 (11732394_at) / RFU HLA-DPB1 (11760878_x_at) / Fold change /veh HLA-DPB1 (11760878_x_at) / RFU SPINT1 (11716480_a_at) / Fold change /veh SPINT1 (11716480_a_at) / RFU GAP43 (11754022_s_at) / Fold change /veh GAP43 (11754022_s_at) / RFU A4GNT (11735810_at) / Fold change /veh A4GNT (11735810_at) / RFU PRB3 (11715151_x_at) / Fold change /veh PRB3 (11715151_x_at) / RFU TUBB4B (11761932_at) / Fold change /veh TUBB4B (11761932_at) / RFU CAPN14 (11732068_a_at) / Fold change /veh CAPN14 (11732068_a_at) / RFU TMCC2 (11721928_a_at) / Fold change /veh TMCC2 (11721928_a_at) / RFU IRGQ (11745062_a_at) / Fold change /veh IRGQ (11745062_a_at) / RFU FAM174B (11720279_a_at) / Fold change /veh FAM174B (11720279_a_at) / RFU TMPRSS4 (11748680_a_at) / Fold change /veh TMPRSS4 (11748680_a_at) / RFU FAM212B (11763350_a_at) / Fold change /veh FAM212B (11763350_a_at) / RFU PLEKHG5 (11743358_a_at) / Fold change /veh PLEKHG5 (11743358_a_at) / RFU ZSCAN30 (11745921_a_at) / Fold change /veh ZSCAN30 (11745921_a_at) / RFU CMKLR1 (11741424_a_at) / Fold change /veh CMKLR1 (11741424_a_at) / RFU LOC101060620 /// MAPK8IP1 (11723275_at) / Fold change /veh LOC101060620 /// MAPK8IP1 (11723275_at) / RFU SPTSSB (11747773_x_at) / Fold change /veh SPTSSB (11747773_x_at) / RFU PRSS12 (11739890_at) / Fold change /veh PRSS12 (11739890_at) / RFU BIN1 (11741810_x_at) / Fold change /veh BIN1 (11741810_x_at) / RFU WNT11 (11732464_a_at) / Fold change /veh WNT11 (11732464_a_at) / RFU C10orf10 (11716521_a_at) / Fold change /veh C10orf10 (11716521_a_at) / RFU C5orf56 (11738089_at) / Fold change /veh C5orf56 (11738089_at) / RFU CYB561 (11721691_x_at) / Fold change /veh CYB561 (11721691_x_at) / RFU ANKRD19P (11752326_a_at) / Fold change /veh ANKRD19P (11752326_a_at) / RFU OR2T12 /// OR2T33 /// OR2T8 (11738714_s_at) / Fold change /veh OR2T12 /// OR2T33 /// OR2T8 (11738714_s_at) / RFU VCAN (11748164_a_at) / Fold change /veh VCAN (11748164_a_at) / RFU JSRP1 (11732532_at) / Fold change /veh JSRP1 (11732532_at) / RFU KRTAP10-11 (11738290_x_at) / Fold change /veh KRTAP10-11 (11738290_x_at) / RFU MYO3A (11730013_a_at) / Fold change /veh MYO3A (11730013_a_at) / RFU EBF3 (11725865_a_at) / Fold change /veh EBF3 (11725865_a_at) / RFU CAMK2N1 (11719241_x_at) / Fold change /veh CAMK2N1 (11719241_x_at) / RFU C5orf56 (11738088_a_at) / Fold change /veh C5orf56 (11738088_a_at) / RFU OLFML3 (11715873_a_at) / Fold change /veh OLFML3 (11715873_a_at) / RFU LOC100653217 /// NTM (11731650_a_at) / Fold change /veh LOC100653217 /// NTM (11731650_a_at) / RFU MAPK11 (11762145_a_at) / Fold change /veh MAPK11 (11762145_a_at) / RFU FIZ1 (11724087_x_at) / Fold change /veh FIZ1 (11724087_x_at) / RFU OASL (11726364_x_at) / Fold change /veh OASL (11726364_x_at) / RFU SOX15 (11748057_x_at) / Fold change /veh SOX15 (11748057_x_at) / RFU CD79A (11719716_a_at) / Fold change /veh CD79A (11719716_a_at) / RFU HIST1H1D (11736915_at) / Fold change /veh HIST1H1D (11736915_at) / RFU CASKIN2 (11723855_a_at) / Fold change /veh CASKIN2 (11723855_a_at) / RFU LOC730098 (11760151_x_at) / Fold change /veh LOC730098 (11760151_x_at) / RFU OR4N2 (11742367_at) / Fold change /veh OR4N2 (11742367_at) / RFU PRRT2 (11749266_a_at) / Fold change /veh PRRT2 (11749266_a_at) / RFU SNX32 (11753110_a_at) / Fold change /veh SNX32 (11753110_a_at) / RFU CDHR5 (11726645_a_at) / Fold change /veh CDHR5 (11726645_a_at) / RFU RCAN1 (11760418_a_at) / Fold change /veh RCAN1 (11760418_a_at) / RFU FAM167A (11723789_a_at) / Fold change /veh FAM167A (11723789_a_at) / RFU FAM26E (11764081_at) / Fold change /veh FAM26E (11764081_at) / RFU ISYNA1 (11749810_s_at) / Fold change /veh ISYNA1 (11749810_s_at) / RFU ACY1 (11761880_at) / Fold change /veh ACY1 (11761880_at) / RFU 11764098_at / Fold change /veh 11764098_at / RFU SAMD14 (11745864_x_at) / Fold change /veh SAMD14 (11745864_x_at) / RFU NPB (11741838_a_at) / Fold change /veh NPB (11741838_a_at) / RFU TMPRSS6 (11731388_a_at) / Fold change /veh TMPRSS6 (11731388_a_at) / RFU KRTAP10-2 (11738614_at) / Fold change /veh KRTAP10-2 (11738614_at) / RFU ARHGAP8 /// PRR5-ARHGAP8 (11727945_x_at) / Fold change /veh ARHGAP8 /// PRR5-ARHGAP8 (11727945_x_at) / RFU KRTAP5-7 /// NADSYN1 (11734609_at) / Fold change /veh KRTAP5-7 /// NADSYN1 (11734609_at) / RFU RASL12 (11751679_a_at) / Fold change /veh RASL12 (11751679_a_at) / RFU CDKN2B (11736163_a_at) / Fold change /veh CDKN2B (11736163_a_at) / RFU PRF1 (11729649_at) / Fold change /veh PRF1 (11729649_at) / RFU, ZNF638 /// ZNF638-IT1 / Fold change vs veh, ZNF638 /// ZNF638-IT1 / RFU, PANK3 / Fold change vs veh, PANK3 / RFU, SH3YL1 / Fold change vs veh, SH3YL1 / RFU, ZEB2 / Fold change vs veh, ZEB2 / RFU, NRIP1 / Fold change vs veh, NRIP1 / RFU, PTTG1IP / Fold change vs veh, PTTG1IP / RFU, CAPN2 / Fold change vs veh, CAPN2 / RFU, MED14 / Fold change vs veh, MED14 / RFU, SNORA58 / Fold change vs veh, SNORA58 / RFU, C1orf63 / Fold change vs veh, C1orf63 / RFU, LRRFIP1 / Fold change vs veh, LRRFIP1 / RFU, NDUFAF7 / Fold change vs veh, NDUFAF7 / RFU, SLC12A2 / Fold change vs veh, SLC12A2 / RFU, IBTK / Fold change vs veh, IBTK / RFU, ESF1 / Fold change vs veh, ESF1 / Fold change vs veh, TMEM50B / RFU, TAOK1 / Fold change vs veh, TAOK1 / RFU, ACBD3 / Fold change vs veh, ACBD3 / RFU, TMA16 / Fold change vs veh, TMA16 / RFU, RWDD3 / Fold change vs veh, RWDD3 / RFU, BCAT1 / Fold change vs veh, BCAT1 / RFU, EDEM3 / Fold change vs veh, EDEM3 / RFU, TMEM33 / Fold change vs veh, TMEM33 / RFU, WDR75 / Fold change vs veh, WDR75 / RFU, AHCTF1 / Fold change vs veh, AHCTF1 / RFU, TFRC / Fold change vs veh, TFRC / RFU, ZDHHC17 / Fold change vs veh, ZDHHC17 / RFU, NOM1 / Fold change vs veh, NOM1 / RFU, ARL8B / Fold change vs veh, ARL8B / RFU, ZBTB11 / Fold change vs veh, ZBTB11 / RFU, TAMM41 / Fold change vs veh, TAMM41 / RFU, KIAA1704 /// LOC100996395 / Fold change vs veh, KIAA1704 /// LOC100996395 / RFU, ING1 / Fold change vs veh, ING1 / RFU, TRMT61B / Fold change vs veh, TRMT61B / RFU, FUBP3 / Fold change vs veh, FUBP3 / RFU, TP53 / Fold change vs veh, TP53 / RFU, TNKS2 / Fold change vs veh, TNKS2 / RFU, ZFP14 / Fold change vs veh, ZFP14 / RFU, ACTR2 / Fold change vs veh, ACTR2 / RFU, PPP3R1 / Fold change vs veh, PPP3R1 / RFU, PIK3R1 / Fold change vs veh, PIK3R1 / RFU, HNRNPA1 / Fold change vs veh, HNRNPA1 / RFU, RNF170 / Fold change vs veh, RNF170 / RFU, ZNF28 / Fold change vs veh, ZNF28 / RFU, RNGTT / Fold change vs veh, RNGTT / RFU, OGT / Fold change vs veh, OGT / RFU, BRD1 / Fold change vs veh, BRD1 / RFU, MARS / Fold change vs veh, MARS / RFU, ZNF655 / Fold change vs veh, ZNF655 / RFU, FAHD1 / Fold change vs veh, FAHD1 / RFU, BDP1 / Fold change vs veh, BDP1 / RFU, LRRCC1 / Fold change vs veh, LRRCC1 / RFU, ARID1A / Fold change vs veh, ARID1A / RFU, ZNF146 / Fold change vs veh, ZNF146 / RFU, ZNF330 / Fold change vs veh, ZNF330 / RFU, GPN3 / Fold change vs veh, GPN3 / RFU, C9orf123 / Fold change vs veh, C9orf123 / RFU, N4BP2L2 / Fold change vs veh, N4BP2L2 / RFU, ARFIP1 / Fold change vs veh, ARFIP1 / RFU, FAM179B / Fold change vs veh, FAM179B / RFU, BCL10 / Fold change vs veh, BCL10 / RFU, UHRF1BP1L / Fold change vs veh, UHRF1BP1L / RFU, BET1 / Fold change vs veh, BET1 / RFU, CNOT2 / Fold change vs veh, CNOT2 / RFU, ZNF268 / Fold change vs veh, ZNF268 / Fold change vs veh, ZNF507 / RFU, DGCR2 / Fold change vs veh, DGCR2 / RFU, WDSUB1 / Fold change vs veh, WDSUB1 / Fold change vs veh, HSP90B1 /// MIR3652 / RFU, ADSS / Fold change vs veh, ADSS / RFU, GK / Fold change vs veh, GK / RFU, ZNF148 / Fold change vs veh, ZNF148 / RFU, TAF9 / Fold change vs veh, TAF9 / RFU, SLC1A5 / Fold change vs veh, SLC1A5 / RFU, SLMO2 / Fold change vs veh, SLMO2 / RFU, ABCC4 / Fold change vs veh, ABCC4 / RFU, LOC101060439 /// RAP1B / Fold change vs veh, LOC101060439 /// RAP1B / RFU, RFX7 / Fold change vs veh, RFX7 / RFU, GTPBP10 / Fold change vs veh, GTPBP10 / RFU, CNEP1R1 / Fold change vs veh, CNEP1R1 / RFU, BIVM-ERCC5 /// ERCC5 / Fold change vs veh, BIVM-ERCC5 /// ERCC5 / RFU, ILF3 / Fold change vs veh, ILF3 / RFU 11762660_at / Fold change /veh 11762660_at / RFU VCAN (11757783_s_at) / Fold change /veh VCAN (11757783_s_at) / RFU DDX43 (11728927_at) / Fold change /veh DDX43 (11728927_at) / RFU KRT8 (11758188_x_at) / Fold change /veh KRT8 (11758188_x_at) / RFU NKD1 (11759106_at) / Fold change /veh NKD1 (11759106_at) / RFU SRD5A1 (11742802_a_at) / Fold change /veh SRD5A1 (11742802_a_at) / RFU TPSAB1 /// TPSB2 (11721975_s_at) / Fold change /veh TPSAB1 /// TPSB2 (11721975_s_at) / RFU GSTM3 (11746129_a_at) / Fold change /veh GSTM3 (11746129_a_at) / RFU IL23R (11737362_x_at) / Fold change /veh IL23R (11737362_x_at) / RFU TMEM51 (11727254_a_at) / Fold change /veh TMEM51 (11727254_a_at) / RFU PIWIL2 (11732686_x_at) / Fold change /veh PIWIL2 (11732686_x_at) / RFU ORM1 (11744905_x_at) / Fold change /veh ORM1 (11744905_x_at) / RFU CCDC152 (11743942_at) / Fold change /veh CCDC152 (11743942_at) / RFU ECM1 (11717891_a_at) / Fold change /veh ECM1 (11717891_a_at) / RFU IL23R (11748794_a_at) / Fold change /veh IL23R (11748794_a_at) / RFU TNFAIP8L3 (11732012_x_at) / Fold change /veh TNFAIP8L3 (11732012_x_at) / RFU MBOAT4 (11741988_at) / Fold change /veh MBOAT4 (11741988_at) / RFU 11764193_at / Fold change /veh 11764193_at / RFU TMEM53 (11763286_at) / Fold change /veh TMEM53 (11763286_at) / RFU MAGEB2 (11727129_at) / Fold change /veh MAGEB2 (11727129_at) / RFU TMEM200A (11744735_a_at) / Fold change /veh TMEM200A (11744735_a_at) / RFU CCDC152 (11751479_a_at) / Fold change /veh CCDC152 (11751479_a_at) / RFU FAM211A (11726209_a_at) / Fold change /veh FAM211A (11726209_a_at) / RFU RGS16 (11746705_a_at) / Fold change /veh RGS16 (11746705_a_at) / RFU VCAN (11755009_s_at) / Fold change /veh VCAN (11755009_s_at) / RFU RHOB (11743442_s_at) / Fold change /veh RHOB (11743442_s_at) / RFU RGS16 (11720943_a_at) / Fold change /veh RGS16 (11720943_a_at) / RFU RGS16 (11720944_at) / Fold change /veh RGS16 (11720944_at) / RFU, VPS4B / Fold change vs veh, VPS4B / RFU, CREB1 / Fold change vs veh, CREB1 / RFU, DNAJC13 / Fold change vs veh, DNAJC13 / RFU, GNAQ / Fold change vs veh, GNAQ / RFU, CDK5R1 / Fold change vs veh, CDK5R1 / RFU, ZRANB3 / Fold change vs veh, ZRANB3 / RFU, CUL4A / Fold change vs veh, CUL4A / RFU, CCNY / Fold change vs veh, CCNY / RFU, UFL1 / Fold change vs veh, UFL1 / RFU, COG3 / Fold change vs veh, COG3 / RFU, DIAPH2 / Fold change vs veh, DIAPH2 / RFU, SKA2 / Fold change vs veh, SKA2 / RFU, AFF3 / Fold change vs veh, AFF3 / RFU, LMF1 / Fold change vs veh, LMF1 / RFU, IPO11 / Fold change vs veh, IPO11 / RFU, DFFB / Fold change vs veh, DFFB / RFU, FOXP1 / Fold change vs veh, FOXP1 / RFU, CARD8 / Fold change vs veh, CARD8 / RFU, STRN3 / Fold change vs veh, STRN3 / RFU, ADK / Fold change vs veh, ADK / RFU, RASSF2 / Fold change vs veh, RASSF2 / RFU, WIPF1 / Fold change vs veh, WIPF1 / RFU, LARP1B / Fold change vs veh, LARP1B / RFU, RASA1 / Fold change vs veh, RASA1 / RFU, RB1 / Fold change vs veh, RB1 / RFU, PPFIA1 / Fold change vs veh, PPFIA1 / RFU, MAT2A / Fold change vs veh, MAT2A / RFU, CCT5 / Fold change vs veh, CCT5 / RFU, WDR92 / Fold change vs veh, WDR92 / RFU, CUX1 / Fold change vs veh, CUX1 / RFU, TTC7A / Fold change vs veh, TTC7A / RFU, TMEM135 / Fold change vs veh, TMEM135 / RFU, DEPTOR / Fold change vs veh, DEPTOR / RFU, CPM / Fold change vs veh, CPM / RFU, DNAJB6 / Fold change vs veh, DNAJB6 / RFU, CACNA2D3 / Fold change vs veh, CACNA2D3 / RFU, DTX4 / Fold change vs veh, DTX4 / RFU, TFCP2 / Fold change vs veh, TFCP2 / RFU, GMCL1 /// GMCL1P1 / Fold change vs veh, GMCL1 /// GMCL1P1 / RFU, AEBP2 / Fold change vs veh, AEBP2 / RFU, SNHG1 /// SNORD22 /// SNORD25 /// SNORD26 /// SNORD27 /// SNORD28 /// SNORD29 /// SNORD31 / Fold change vs veh, SNHG1 /// SNORD22 /// SNORD25 /// SNORD26 /// SNORD27 /// SNORD28 /// SNORD29 /// SNORD31 / Fold change (Aza/veh), C12orf56 (ProbeSet 11735607_a_at) / Fold change (ACY-1035/veh), C12orf56 (ProbeSet 11735607_a_at) / Fold change (Aza/veh), FGFR1OP (ProbeSet 11751329_s_at) / Fold change (ACY-1035/veh), FGFR1OP (ProbeSet 11751329_s_at) / Fold change (Aza/veh), VPS36 (ProbeSet 11739960_a_at) / Fold change (ACY-1035/veh), VPS36 (ProbeSet 11739960_a_at) / RFU SYPL1 (11715823_x_at) / Fold change /veh SYPL1 (11715823_x_at) / RFU IGFBP7 (11715501_s_at) / Fold change /veh IGFBP7 (11715501_s_at) / RFU REEP3 (11722064_at) / Fold change /veh REEP3 (11722064_at) / RFU IGLL1 (11728026_x_at) / Fold change /veh IGLL1 (11728026_x_at): dose or concentration left out as unconfirmed
Settings: ProbeSet 11732165_x_at; LIST D

Structure (SMILES): Nc1ncn([C@@H]2O[C@H](CO)[C@@H](O)[C@H]2O)c(=O)n1 [azacitidine]
- RFU, LMF1: 50.31 RFU
